Laboratory results published in article PMC12007624 (Open Forum Infectious Diseases, 2025).
Blank lines part the entries; values can stand above or below the compound they belong to.

Experiments:
[1] = Pharmacokinetics of RAL before and DTG after switch to DTG-based ART; format: in vivo, human; conditions: SOT recipients receiving immunosuppressants
[2] = system: renal organic cation transporter OCT2; conditions: renal tubules; interferes with creatinine clearance; cited from earlier work
[3] = system: multidrug and toxin extrusion transporter MATE1; conditions: renal tubules; cited from earlier work
[4] = Pharmacokinetics of immunosuppressants before and 2 weeks after ART switch; format: in vivo, human; conditions: for AUC % Change / Cmax % Change / Cmin % Change: after vs before ART switch, P > .05

SMILES: C[C@@H]1CCO[C@H]2Cn3cc(C(=O)NCc4ccc(F)cc4F)c(=O)c(O)c3C(=O)N12 [DTG, Dolutegravir]
- plasma levels versus normal range [1]: in the normal range
- effect on OCT2 [2]: inhibits
- effect on MATE1 [3]: potentially

- Cmin ([4]; After ART switch (2 weeks on DTG-based ART), plasma, median (IQR)): 2.9 (1.7, 4) µg/mL
- Cmin ([4]; Before ART switch (RAL-based ART), plasma, median (IQR)): 1.9 (1.5, 2.5) µg/mL
- AUC % Change [4]: 16%
- Cmax % Change [4]: 63%
- Cmin % Change [4]: 53%
- AUC % Change ([4]; listed as mycophenolic acid): +16%
- Cmax % Change ([4]; listed as mycophenolic acid): +63%
- Cmin % Change ([4]; listed as mycophenolic acid): +53%
SMILES: COc1c(C)c2c(c(O)c1C/C=C(\C)CCC(=O)O)C(=O)OC2 [Mycophenolic Acid, mycophenolic acid]

- plasma levels versus normal range [1]: in the normal range
SMILES: Cc1nnc(C(=O)NC(C)(C)c2nc(C(=O)NCc3ccc(F)cc3)c(O)c(=O)n2C)o1 [RAL, Raltegravir]

- Cmin ([4]; After ART switch (2 weeks on DTG-based ART), blood, median (IQR)): 4.4 (4.3, 8.5) ng/mL
- Tmax ([4]; After ART switch (2 weeks on DTG-based ART), median (IQR)): 2 (1, 2) h
- Cmin ([4]; Before ART switch (RAL-based ART), blood, median (IQR)): 6.2 (5.2, 8.9) ng/mL
- AUC % Change [4]: −9%
- Cmax % Change [4]: 14%
- Cmin % Change [4]: −29%
- Cmax % Change ([4]; listed as tacrolimus): +14%
SMILES: C=CC[C@@H]1/C=C(\C)C[C@H](C)C[C@H](OC)[C@H]2O[C@@](O)(C(=O)C(=O)N3CCCC[C@H]3C(=O)O[C@H](/C(C)=C/[C@@H]3CC[C@@H](O)[C@H](OC)C3)[C@H](C)[C@@H](O)CC1=O)[C@H](C)C[C@@H]2OC [Tacrolimus, tacrolimus]
